One assay concerns Candida albicans. The experiment in a line: In vitro growth inhibition test in liquid nutrient medium. In kind it is cell-based. The protocol: (§1) Candida albicans and Trichomonas vaginalis strains are cultured in a liquid nutrient medium. Incubation is carried out at 37°C for 48 hours. Each nutrient medium (10 ml) is inoculated with 1000 germs per ml. The number of germs is determined in a Burker chamber. Dilution series are prepared from the stock inoculum by using a physiological sodium chloride solution. To the mixture of the nutrient medium and 0.5 ml a physiological sodium chloride solution 2-methyl-1,4-naphthoquinone, nystatin and mixtures thereof are added.
(§2) The minimal inhibitory concentration of nystatin is determined in the manner disclosed above.
(§3) 1.25 mg/10 ml of 2-methyl-1,4-naphthoquinone is added to an amount of nystatin being the one fiftieth (1/50) part of the minimal inhibitory concentration. Complete inhibition of the growth of Candida albicans and Trichomonas vaginalis was observed.

In the next assay the test system is Trichomonas vaginalis. The description is as above. In kind it is cell-based. The protocol: as §1, §2, §3
The test system of assay [1] is vulvovaginitis candidomycetica. As to the kind of experiment: In vivo test: treatment of patients with suppositories. As to conditions: patients with vulvovaginitis candidomycetica treated with suppositories; number of patients 35. The procedure:
Patients suffering of vulvovaginitis candidomycetica are treated with suppositories according to Example 1. As control suppositories containing no 2-methyl-1,4-naphthoquinone-sodium sulfite adduct but nystatin only are used. Number of patients 35.

Where [2] appears, read: concentration smaller than 5 mg/10 ml.
Where [3] appears, read: liquid nutrient medium 10 ml, 1000 germs per ml, 37°C, 48 hours.

Turning to `CC1=CC(=O)c2ccccc2C1=O` [2-methyl-1,4-naphthoquinone], the “activity at a smaller concentration than the minimal inhibitory concentration” value in the assay on Candida albicans (setting [2]) and in the assay on Trichomonas vaginalis (setting [2]) was “completely inactive” in each case. For the same compound, the minimal inhibitory concentration with Candida albicans (setting [3]) and in the assay on Trichomonas vaginalis (setting [3]) was 5 mg/10 ml throughout.
With `C[C@@H]1[C@H](O)[C@@H](C)/C=C/C=C/CC/C=C/C=C/C=C/C=C/C(O[C@H]2O[C@H](C)[C@@H](O)[C@H](N)[C@@H]2O)CC2O[C@](O)(CC(O)C(O)CCC(O)CC(O)CC(O)CC(=O)O[C@H]1C)CC(O)C2C(=O)O` (some centres unmarked) [Nystatin], the “Recovery, in % of the cases” value in assay [1] was 66%.

The record behind these values is patent EP0065513B1, “ANTIMYCOTIC SYNERGISTIC PHARMACEUTICAL COMPOSITIONS AND PROCESS FOR THE PREPARATION THEREOF” (CHINOIN Gyogyszer és Vegyészeti Termékek Gyára RT., priority 1980, dated 1982).
